Assay results published in US8247378B2, “Homing peptide for tumor vasculature” (The Chinese University of Hong Kong, priority 2009, dated 2012).
Where no end group is shown, it is not given here. The star is where a group is joined. FITC = O=C1OC2(c3ccc(O)cc3Oc3cc(O)ccc32)c2ccc(NC(=S)*)cc21

Experiments:
[1] = test system: orthotopic colorectal cancer tissue (colon 26); assay: In vivo phage targeting assay, orthotopic colorectal cancer model; set-up: species or system BALB/c mice; settings: synthetic peptide (300 μg) co-injected with CTPSPFSHC-phage
Experimental: The mice were maintained at Chinese University of Hong Kong Animal Facility.
The model was performed as previously published with some modifications. (See Takahashi T, Morotomi M, and Nomoto K (2004). A novel mouse model of rectal cancer established by orthotopic implantation of colon cancer cells. Cancer Sci 95, 514-519). Briefly, all mice were given the tap water containing 3% dextran sulfate sodium (DSS) for 8 days to induce colitis. Mice were fasted for 18 h (DSS) after colitis induction, and then anesthetized with sodium pentobarbital. Colon 26 cells (3×10^6 cells/40 μl/mouse) were infused intrarectally with a micropipette inserted 2 cm into the anus of the mice. The anus was compressed with a noncrushing microclamp immediately after instillation of tumor cells for 30 min to prevent leakage. Successful models were used for in vivo selection at 2 weeks after implantation of tumor cells.
The assay was as described in Zhang L, Giraudo E, Hoffman J A, Hanahan D, and Ruoslahti E (2006). Lymphatic zip codes in premalignant lesions and tumors. Cancer Res 66, 5696-5706. Briefly, mice bearing tumors were anesthetized and i.v. injected with 1×10^9 pfu CTPSPFSHC-phage or control phage. After 8 minutes, mice were perfused through the heart with DMEM containing 1% BSA. The tumor and control organs were removed from each mouse and the phage was rescued and titered. […]

colon 26 cells = assay: In vitro cell viability assay (MTT assay), colon 26; format: cell-based, murine; settings: colon 26, 6 h, increasing concentrations
Experimental: (§1) Cell lines and cell culture: The murine colorectal cancer cell colon 26, human colon cancer cell SW1116 were cultured at 37° C. in a humidified atmosphere containing 5% CO2, in RPMI-1640 medium supplemented with 2 g/L sodium bicarbonate, 100 units/ml penicillin, […] streptomycin and 10% FBS.
(§2) In vitro cell viability assay (MTT assay): Cell viability was assessed by MTT assay, which depends on the ability of viable cells to reduce the MTT to a colored formazan product. In brief, cells (10^4 cells per well) were seeded in 96-well microculture plates overnight for attachment, and then incubated with increasing concentrations of the peptides CTPSPFSHC-GG-D(KLAKLAK)2 or CTPSPFSHC (SEQ ID NO:1) or D(KLAKLAK)2 in 100 μl of 1% FBS in DMEM for 6˜48 hours at 37° C. In the next step, MTT was added to each well, and the cells were further incubated for 3 h. The colored formazan product was determined photometrically at 570 nm in a multi-well plate reader (Bio-Rad).
(§3) TCP-1 conjugate and induction of apoptosis in colorectal cancer cells: Next, in order to examine whether the TCP-1 peptide could serve as a drug carrier into cancer cells, we synthesized a chimeric peptide of TCP-1 peptide to a proapoptotic peptide D(KLAKLAK)2, which disrupts mitochondrial membranes upon receptor-mediated cell internalization and causes programmed cell death. Increasing concentrations of TCP-1 conjugate (TCP-GG-D(KLAKLAK)2), equimolar TCP-1 or D(KLAKLAK)2 were incubated with colon 26 or SW1116 cells at 37° C. Cell viability was assessed after 6 h (colon 26) and 48 h (SW1116). The effect of TCP-1 conjugate on the cell viability was determined and compared respectively with TCP-1 or D(KLAKLAK)2 alone.

[2] = test system: orthotopic colorectal tumors; assay: Organ level imaging of tumor tissues with FITC-labeled peptide; format: in vivo, mice
Experimental: Imaging of tissue was done under a blue light, by using the imaging system of KODAK Image Station 2000MM.
To determine whether FITC-labeled TCP-1 accumulated into the tumor tissues can be visualized at the organ level, tumor-bearing mice were injected intravenously with FITC-labeled TCP-1, control peptide or PBS alone. More specifically, tumor-bearing mice were i.v. injected with 500 nmol fluorescein-conjugated peptide (in 500 μl PBS). The peptide was allowed to circulate for 20 hour. The mice were killed, and various tissues were excised and examined for fluorescence. Organ imaging was done under a blue light, by using the imaging system of KODAK Image Station 2000MM.
Further, FITC-labeled TCP-1 could specifically accumulate in the tumor tissues with various volumes (diameter 2 mm, 6 mm, 8 mm tested) (FIG. 5B).

SW1116 cells = assay: In vitro cell viability assay (MTT assay), SW1116; format: cell-based, human; settings: SW1116, 48 h, increasing concentrations
Experimental: as §1, §2, §3

[3] = test system: tumor vasculature of orthotopic colorectal cancer; assay: Therapeutic treatment with proapoptotic conjugate, cleaved caspase 3/CD31 staining; format: in vivo
Source text: We conjugated TCP-1 with a pro-apoptotic peptide, D(KLAKLAK)2, which disrupts mitochondrial membranes upon receptor-mediated cell internalization and causes programmed cell death. This approach has been successfully employed for targeted apoptosis induction in angiogenic endothelial cells, tumor lymphatics and the vasculature of white fat. See: Zhang L, Giraudo E, Hoffman J A, Hanahan D, and Ruoslahti E (2006). Lymphatic zip codes in premalignant lesions and tumors. Cancer Res 66, 5696-5706; Kolonin M G, Saha P K, Chan L, Pasqualini R, and Arap W (2004). Reversal of obesity by targeted ablation of adipose tissue. Nat Med 10, 625-632; and, Ellerby H M, Arap W, Ellerby L M, Kain R, Andrusiak R, Rio G D, Krajewski S, Lombardo C R, Rao R, Ruoslahti E, et al. (1999). Anti-cancer activity of targeted pro-apoptotic peptides. Nat Med 5, 1032-1038. All-D enantiomer D(KLAKLAK)2 was used to avoid degradation by proteases. Ellerby H M, et al., (1999) Nat Med 5, 1032-1038.
Mice bearing orthotopic colorectal cancer were randomized into three groups. The therapeutic group was i.v. injected 260 μg/dose/mouse of the conjugated CTPSPFSHC-GG-D(KLAKLAK)2 [CDK]. Control groups received an equimolar mixture of CTPSPFSHC (SEQ ID NO:1) and D(KLAKLAK)2 [DKK], or PBS alone once every three days. Treatment was terminated 7 days after the first peptide administration as described in Kolonin M G, Saha P K, Chan L, Pasqualini R, and Arap W (2004). Reversal of obesity by targeted ablation of adipose tissue. Nat Med 10, 625-632 and Giordano R J, Landenranta J, Zhen L, Chukwueke U, Petrache I, Langley R R, Fidler I J, Pasqualini R, Tuder R M, and Arap W (2008). Targeted induction of lung endothelial cell apoptosis causes emphysema-like changes in the mouse. J Biol Chem 283, 29447-29460.
Tumors and control organs were dissected at the termination of the experiment. Histologic analysis was done to evaluate the density of tumor blood vessels. Apoptotic vascular endothelial cells were visualized by double staining with anticleaved caspase-3 and CD31 antibodies. […]

[4] = test system: blood vessels (CD31) in gastric cancer tissues; assay: Biodistribution of FITC-conjugated peptide, gastric cancer model; format: in vivo, mouse; settings: 300 nmol i.v., 1 hour circulation
Experimental: (§4) To further confirm whether the selective phage homing was due to the CTPSPFSHC (SEQ ID NO:1) peptide (TCP-1), chemically synthetic FITC-conjugated TCP-1 or control peptide was intravenously injected into gastric cancer-bearing mice to study the location of the peptide. Biodistribution of fluorescein-conjugated peptides was examined after i.v. injection of the peptide (300 nmol in 300 μl PBS) into the tail vein of a gastric cancer-bearing mouse. The peptide was allowed to circulate for 1 hour.
(§5) Tumor and control tissues were collected and frozen sections prepared as described above. Blood vessels were stained by CD31 antibody (secondary antibody conjugated Alexa-568). […] FITC-labeled control peptide was not found in the tumor tissues (FIG. 10 bottom). Taken together with the immunolocalization analyses of TCP-1 phage homing, the peptide localization data confirmed that TCP-1 peptide also homed specifically to blood vessels in gastric cancer tissues but not to the vasculature of control organs.

[5] = test system: blood vessels of human colon and rectal adenocarcinoma tissues; assay: Peptide binding to tissue sections from human cancer; settings: for binding to blood vessels of cancer tissues / binding to vasculature of normal colon tissues: 10 μmol/L, 1 hour, 37° C., human biopsy sections
Experimental: To establish the ability of TCP-1 to selectively bind to the vasculature of human tumors, human biopsy samples were studied. They were double stained and images photographically overlayed to determine tissue specificity. More specifically, multiple human biopsy samples containing both colon adenocarcinoma and normal colonic tissue were snap frozen, embedded in OCT, cut into 5 μm sections, and then arrayed on slides. The slides were incubated with 10 μmol/L FITC-CTPSPFSHC (SEQ ID NO:2) or FITC-CVQTAQLLC (SEQ ID NO:3) for 1 hour at 37° C., washed three times with PBS, fixed with 4% paraformaldehyde. Blood vessels were stained with mouse anti-human CD31 monoclonal antibody and Alexa Fluor 568 goat anti-mouse IgG as above described.
The positive binding was usually found in tumor tissues at more advanced stages (in terms of lymphovascular permeation, T staging, N staging, and overall Dukes' staging).

[6] = test system: blood vessels (CD31) in orthotopic colorectal tumor tissues; assay: Biodistribution of FITC-conjugated peptide, colorectal cancer model; format: in vivo, mouse; settings: 300 nmol i.v., 1 hour circulation
Experimental: as §4, with “tumor-bearing” for “gastric cancer-bearing”
as §5, with “above in Example 1.” for “above.”, “4A).” for “10 bottom).”, “peptide” for “peptide also”, “tumor” for “gastric cancer”

[7] = 500 nmol i.v., 20 h after injection

| Substance | effect on cell viability (colon 26 cells) | peptide fluorescence in vasculature of tumor tissue (histological analysis) ([2]; 20 h after injection) | effect on cell viability (SW1116 cells) | peptide localization in tumor tissues (CD31 co-staining) [4] | binding to blood vessels of cancer tissues [5] | binding to vasculature of normal colon tissues [5] | peptide localization in tumor tissues (CD31 co-staining) [6] | fluorescent signal in other control tissues [2, 7] | fluorescent signal in tumors, whole tissue under blue light [2, 7] | further results |
| --- | --- | --- | --- | --- | --- | --- | --- | --- | --- | --- |
| CTPSPFSHC (also: cyclic) [TCP-1] | no significant effect on cell viability | remained in the vasculature of tumor tissue | no significant effect on cell viability |  |  |  |  |  |  | effect on phage number recovered from control organs (brain, colon) [1]: not much affected; reduction of phage number recovered from the tumor tissue [1]: 95%; peptide fluorescence in control organs (histological analysis) ([2]; 20 h after injection): not in the control organs |
| CTPSPFSHC-GG-D(KLAKLAK)2 [TCP-GG-D(KLAKLAK)2] | inhibited the proliferation of colon 26 and SW1116 cells more efficiently than D(KLAKLAK)2 alone |  | inhibited the proliferation of colon 26 and SW1116 cells more efficiently than D(KLAKLAK)2 alone |  |  |  |  |  |  | vasculature endothelial cells expressing active caspase 3 in tumors ([3]; 260 μg/dose/mouse i.v. once every three days, 7 days, vs PBS or uncoupled mixture): obvious increase; quantification of active caspase 3: apoptotic cells in the tumor vasculature ([3]; 260 μg/dose/mouse i.v., compared to the other two groups): remarkable increased number of apoptotic cells; apoptotic vasculature in normal colon tissues and brain tissues ([3]; mouse, in vivo): hardly active caspase-3 positive cells |
| D(KLAKLAK)2 [reference compound] | much weaker toxic effects |  | much weaker toxic effects |  |  |  |  |  |  |  |
| FITC-CTPSPFSHC ({FITC}-CTPSPFSHC; cysteine pairing not given here) [FITC-labeled TCP-1, FITC-conjugated TCP-1 peptide for homing validation] |  |  |  | colocalised with CD31 | bound | not to vasculature of normal colon tissues | colocalised with CD31 | no specific fluorescent signal | strong fluorescent signal | peptide localization in control organs [4]: not detectable; colon adenocarcinomas recognized by the peptide ([5]; positive/total patients): 5/10; rectal adenocarcinomas recognized by the peptide ([5]; positive/total patients): 6/11; peptide localization in control organs [6]: not detectable; smallest tumor size detected ([2]; 500 nmol i.v., 20 hour circulation): 2 mm |
| FITC-CVQTAQLLC ({FITC}-CVQTAQLLC; cysteine pairing not given here) [FITC-labeled control peptide, FITC-conjugated negative control peptide, reference compound] |  | not detectable |  | not found | did not interact | did not interact | not found | no specific fluorescent signal | no fluorescent signal |  |
